Test results as given in patent publication EP4434982A1, “(S)-2-(2-METHYLAZETIDIN-1-YL)PYRIMIDINE DERIVATIVE AND PHARMACEUTICAL COMPOSITION COMPRISING SAME” (LG Chem, Ltd., priority 2021, dated 2023).

Target: T1, Ketohexokinase (KHK) (Homo sapiens, UniProt P50053)
T1 construct: His tag; made in house; host or cells: E. coli
T1 sequence (P50053 1-298): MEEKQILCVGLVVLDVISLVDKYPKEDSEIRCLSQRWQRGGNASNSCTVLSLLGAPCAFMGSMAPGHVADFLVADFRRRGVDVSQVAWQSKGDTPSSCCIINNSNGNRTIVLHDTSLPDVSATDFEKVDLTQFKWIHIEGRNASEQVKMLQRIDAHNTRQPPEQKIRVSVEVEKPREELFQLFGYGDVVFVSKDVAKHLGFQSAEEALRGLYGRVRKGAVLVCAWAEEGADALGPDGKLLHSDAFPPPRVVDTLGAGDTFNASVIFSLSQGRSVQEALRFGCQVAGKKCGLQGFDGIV
Experiment: measurement of activity in vitro of ketohexokinase inhibitor (Transcreener ADP2 TR-FRET Red Assay, ADP produced)
Assay type: biochemical
Conditions: KHK pre-reacted with inhibitor 30 minutes, then substrate (ATP, fructose) 15 minutes; Ki by Morrison equation
Method: Ketohexokinase (KHK) was expressed in E. Coli and purified using His tag. In order to measure the activity of the purified KHK, Transcreener ADP2 TR-FRET Red Assay kit of BellBrook Labs was used. A method of measuring the amount of ADP produced was used using TR-FRET after reacting a solution including a suitable concentration of KHK protein and ATP, and fructose for 15 minutes. In order to see the activity of a ketohexokinase (KHK) inhibitor, ketohexokinase (KHK) and a suitable concentration of an inhibitor were reacted first for 30 minutes, and then, reacted with a solution including the substrate of ketohexokinase (KHK) for 15 minutes. Then, reaction for TR-FRET was performed for 1 hour, and fluorescence was measured using Envision equipment of PerkinElmer. According to the optimization procedure of TR-FRET published by BellBrook Lab, the set value of the Envision equipment was determined.
The result values by concentration of the ketohexokinase (KHK) inhibitor were determined as the ratio of a wavelength of 665 nm and a wavelength of 615nm. The 665/615 ratio value by concentration of each inhibitor was converted to ADP concentration based on ADP standard curve, and inhibition activity Ki value was obtained using Morrison equation by statistical software (Prizm). Meanwhile, the Ki value is a value representing the binding affinity of the inhibitor and an enzyme, and a lower value means better inhibitory activity.

Ki [nM]	SMILES
≤ 10	C[C@H]1CCN1c1nc(-c2cc(F)c(OCC(=O)N3CCNCC3)c(F)c2)c2c(n1)C(F)(F)CC2 [Example 34]
≤ 10	Cc1c(-c2ccc(OCC(=O)N3CCNCC3)nc2)nc(N2CC[C@@H]2C)nc1C(F)(F)F [Example 40, (S)-2-((5-(5-methyl-2-(2-methylazetidin-1-yl)-6-(trifluoromethyl)pyrimidin-4-yl)pyridin-2-yl)oxy)-1-(piperazin-1-yl)ethan-1-one]
≤ 10	C[C@H]1CCN1c1nc(-c2ccc(CC(=O)N3CCNCC3)nc2)cc(C(F)(F)F)n1 [Example 31]
≤ 10	C[C@H]1CCN1c1nc(N2CC[C@H](CC(=O)N3CCNCC3)C2)c2c(n1)C(F)(F)CC2 [Example 9]
10 to 100	C[C@H]1CCN1c1nc(-c2ccc(OCC(=O)N3CCNCC3)cc2)c2c(n1)C(F)(F)CC2 [Example 32]
10 to 100	C[C@H]1CCN1c1nc(N2C[C@H]3C[C@@H](C2)[C@@H]3CC(=O)N2CCNCC2)c2c(n1)C(F)(F)OCC2 [Example 24, 2-((1R,5S,6S)-3-(8,8-difluoro-2-((S)-2-methylazetidin-1-yl)-5,8-dihydro-6H-pyrazol[3,4-d]pyrimidin-4-yl)-3-azabicyclo[3.1.1]heptan-6-yl)-1-(piperazin-1-yl)ethan-1-one]
≤ 10	C[C@H]1CCN1c1nc(-c2ccc(CC(=O)N3CCNCC3)cc2)c2c(n1)C(F)(F)CC2 [Example 30, (S)-2-(4-(7,7-difluoro-2-(2-methylazetidin-1-yl)-6,7-dihydro-5H-cyclopenta[d]pyrimidin-4-yl)phenyl)-1-(piperazin-1-yl)ethan-1-one]
≤ 10	C[C@H]1CCN1c1nc(C2CCN(CC(=O)N3CCNCC3)CC2)c2c(n1)C(F)(F)CC2 [Example 17, (S)-2-(4-(7,7-difluoro-2-(2-methylazetidin-1-yl)-6,7-dihydro-5H-cyclopenta[d]pyrimidin-4-yl)piperidin-1-yl)-1-(piperazin-1-yl)ethan-1-one]
100 to 1000	C[C@H]1CCN1c1nc(N2CC[C@H](OCC(=O)N3CCNCC3)C2)cc(C(F)(F)F)n1 [Example 6, 2-(((S)-1-(2-((S)-2-methylazetidin-1-yl)-6-(trifluoromethyl)pyrimidin-4-yl)pyrrolidin-3-yl)oxy)-1-(piperazin-1-yl)ethan-1-one]
≤ 10	C[C@H]1CCN1c1nc(N2CC(OCC(=O)N3CCNCC3)C2)c2c(n1)C(F)(F)CC2 [Example 3, (S)-2-((1-(7,7-difluoro-2-(2-methylazetidin-1-yl)-6,7-dihydro-5H-cyclopenta[d]pyrimidin-4-yl)azetidin-3-yl)oxy)-1-(piperazin-1-yl)ethan-1-one]
≤ 10	C[C@H]1CCN1c1nc(N2C[C@@H]3[C@H](C2)[C@H]3CS(=O)(=O)N2CCNCC2)c2c(n1)C(F)(F)CC2 [Example 25, 7,7-difluoro-2-((S)-2-methylazetidin-1-yl)-4-((1R,5S,6S)-6-((piperazin-1-ylsulfonyl)methyl)-3-azabicyclo[3.1.0]hexan-3-yl)-6,7-dihydro-5H-cyclopenta[d]pyrimidine]
≤ 10	C[C@H]1CCN1c1nc(N2C[C@@H]3[C@@H](CC(=O)N4CCNCC4)[C@@H]3C2)c2c(n1)C(F)(F)CC2 [Example 18, 2-((1R,5S,6R)-3-(7,7-difluoro-2-((S)-2-methylazetidin-1-yl)-6,7-dihydro-5H-cyclopenta[d]pyrimidin-4-yl)-3-azabicyclo[3.1.0]hexan-6-yl)-1-(piperazin-1-yl)ethan-1-one]
≤ 10	C[C@H]1CCN1c1nc(N2CC[C@H](OCC(=O)N3CCNCC3)C2)c2c(n1)C(F)(F)CC2 [Example 7, 2-(((2S,3R)-1-(7,7-difluoro-2-((S)-2-methylazetidin-1-yl)-6,7-dihydro-5H-cyclopenta[d]pyrimidin-4-yl)pyrrolidin-3-yl)oxy)-1-(piperazin-1-yl)ethan-1-one]
≤ 10	C[C@H]1CCN1c1nc(N2C[C@@H]3[C@@H](CC(=O)N4CCNC(=O)C4)[C@@H]3C2)c2c(n1)C(F)(F)CC2 [Example 20, 4-(2-((1R,5S,6R)-3-(7,7-difluoro-2-((S)-2-methylazetidin-1-yl)-6,7-dihydro-5H-cyclopenta[d]pyrimidin-4-yl)-3-azabicyclo[3.1.0]hexan-6-yl)acetyl)piperazin-2-one]
10 to 100	Cc1c(N2CCC(OCC(=O)N3CCNCC3)CC2)nc(N2CC[C@@H]2C)nc1C(F)(F)F [Example 28]
≤ 10	C[C@H]1CCN1c1nc(-c2ccc(OCC(=O)N3CCCNCC3)c(Cl)c2)c2c(n1)C(F)(F)CC2 [Example 36, (S)-2-(2-(chloro-4-(7,7-difluoro-2-(2-methylazetidin-1-yl)-6,7-dihydro-5H-cyclopenta[d]pyrimidin-4-yl)phenoxy)-1-(1,4-diazepan-1-yl)ethan-1-one)]
≤ 10	C[C@H]1CCN1c1nc(-c2cnc(OCC(=O)N3CCNCC3)c(Cl)c2)c2c(n1)C(F)(F)CC2 [Example 38]
10 to 100	C[C@H]1CCN1c1nc(N2CCC(OCC(=O)N3CCNCC3)CC2)cc(C(F)(F)F)n1 [Example 27]
10 to 100	C[C@H]1CCN1c1nc(N2C[C@@H](OCC(=O)N3CCNCC3)[C@@H]2C)c2c(n1)C(F)(F)CC2 [Example 5, 2-(((2S,3R)-1-(7,7-difluoro-2-((S)-2-methylazetidin-1-yl)-6,7-dihydro-5H-cyclopenta[d]pyrimidin-4-yl)-2-methylazetidin-3-yl)oxy)-1-(piperazin-1-yl)ethan-1-one]
10 to 100	C[C@H]1CCN1c1nc(-c2ccc(OCC(=O)N3CCNCC3)c(F)c2)c2c(n1)C(F)(F)CC2 [Example 33]
≤ 10	C[C@H]1CCN1c1nc(N2CC(OCC(=O)N3CCNCC3)C2)c(Cl)c(C(F)(F)F)n1 [Example 2, (S)-2-((1-(5-chloro-2-(2-methylazetidin-1-yl)-6-(trifluoromethyl)pyrimidin-4-yl)azetidin-3-yl)oxy)-1-(piperazin-1-yl)ethan-1-one]
≤ 10	C[C@H]1CCN1c1nc(-c2ccc(OCC(=O)N3CCNCC3)c(Cl)c2)c2c(n1)C(F)(F)CC2 [Example 35]
10 to 100	C[C@H]1CCN1c1nc(N2CCN(CC(=O)N3CCNCC3)C(=O)C2)cc(C(F)(F)F)n1 [Example 12, (S)-4-(2-(2-methylazetidin-1-yl)-6-(trifluoromethyl)pyrimidin-4-yl)-1-(2-oxo-2-(piperazin-1-yl)ethyl)piperazin-2-one]
≤ 10	C[C@H]1CCN1c1nc(N2CCN(CC(=O)N3CCNCC3)CC2)c2c(n1)C(F)(F)CC2 [Example 13, (S)-2-4-(7,7-difluoro-2-(2-methylazetidin-1-yl)-6,7-dihydro-5H-cyclopenta[d]pyrimidin-1-yl)-1-(piperazin-1-yl)ethan-1-one]
10 to 100	C[C@H]1CCN1c1nc(N2CC(OCC(=O)N3CCNCC3)C2)c2c(n1)C(F)(F)CCC2 [Example 4]
≤ 10	C[C@H]1CCN1c1nc(N2CCC(OCC(=O)N3CCNCC3)CC2)c2c(n1)C(F)(F)CC2 [Example 10, (S)-2-((1-(7,7-difluoro-2-(2-methylazetidin-1-yl)-6,7-dihydro-5H-cyclopenta[d]pyrimidin-4-yl)piperidin-4-yl)oxy)-1-(piperazin-1-yl)ethan-1-one]

SMILES	Ki [nM]
C[C@H]1CCN1c1nc(N2CC(OCC(=O)N3CCNCC3)C2)cc(C(F)(F)F)n1 [Example 1, (S)-2-((1-(2-(2-methylazetidin-1-yl)-6-(trifluoromethyl)pyrimidin-4-yl)azetidin-3-yl)oxy)-1-(piperazin-1-yl)ethan-1-one]	10 to 100
CC1CCN1c1nc(N2CC3CC(C2)C3CC(=O)N2CCNCC2)c2c(n1)C(F)(F)CCC2 [Example 23, 2-((1R,5S,6S)-3-(8,8-difluoro-2-((S)-2-methylazetidin-1-yl)-5,6,7,8-tetrahydroquinazolin-4-yl)-3-azabicyclo[3.1.1]heptan-6-yl)-1-(piperazin-1-yl)ethan-1-one]	10 to 100
C[C@H]1CCN1c1nc(N2C[C@@H]3[C@@H](CC(=O)N4CCN(C)CC4)[C@@H]3C2)c2c(n1)C(F)(F)CC2 [Example 19, 2-((1R,5S,6R)-3-(7,7-difluoro-2-((S)-2-methylazetidin-1-yl)-6,7-dihydro-5H-cyclopenta[d]pyrimidin-4-yl)-3-azabicyclo[3.1.0]hexan-6-yl)-1-(4-methylpiperazin-1-yl)ethan-1-one]	≤ 10
C[C@H]1CCN1c1nc(N2C[C@H]3C[C@@H](C2)[C@@H]3CC(=O)N2CCNCC2)c2c(n1)C(F)(F)CC2 [Example 21, 2-((1R,5S,6S)-3-(7,7-difluoro-2-((S)-2-methylazetidin-1-yl)-6,7-dihydro-5H-cyclopenta[d]pyrimidin-4-yl)-3-azabicyclo[3.1.0]heptan-6-yl)-1-(piperazin-1-yl)ethan-1-one]	≤ 10
C[C@H]1CCN1c1nc(-c2ccc(OCC(=O)N3CCNCC3)nc2)c2c(n1)C(F)(F)CC2 [Example 37]	≤ 10
C[C@H]1CCN1c1nc(-c2ccc(CC(=O)O)cc2)c2c(n1)C(F)(F)CC2 [Example 29]	10 to 100
